Legend:
ACC2 = ACC2 (Homo sapiens (Human), UniProt O00763); experiment: Acetyl-CoA carboxylase inhibition activity assay in vitro (ADP-Glo kinase assay), ACC2; type: biochemical; conditions: 1 nM ACC2, 5% DMSO, 25° C.
Protocol: (§1) The inhibitory action of the compounds against ACC1 or ACC2 was determined by using ADP-Clo™ kinase assay kit from Promega. The ADP-Glo™ Kinase Assay is a luminescent ADP detection assay to measure enzymatic activity by quantifying the amount of ADP produced during an enzyme reaction. The assay is performed in two steps; first, after the enzyme reaction, an equal volume of ADP-Glo™ Reagent is added to terminate the reaction and deplete the remaining ATP. Second, the Kinase Detection Reagent is added to simultaneously convert ADP to ATP and allow the newly synthesized ATP to be measured using a luciferase/luciferin reaction. Luminescence can be correlated to ADP concentrations by using an ATP-to-ADP conversion curve.
(§2) The detailed procedure is as follows. • a. 4.5 μL/well of ACC1/ACC2 working solution (2.22 nM) was added to a 384-well reaction plate (PerkinElmer, 6007290). • b. The compound (10 mM) was diluted with 100% DMSO 500 times to a concentration of 20 μM, the dilute compound solution was diluted 1:3 in succession in a 384-well dilution plate (3657, corning) to gradient concentrations of 20, 6.67, 2.22, 0.74, 0.25, 0.082, 0.027, 0.009, 0.003, 0.001, 0 μM; • c. 0.5 μL/well of the compound solution (prepared in step b) was added to the 384-well reaction plate (prepared in step a), the plate was centrifuged at 1000 rpm and incubated at 25° C. for 15 minutes; • d. 0.5 μL/well of substrate mixture (ATP (10 mM), Acetyl-CoA (2 mM), NaHCO3 (1000 mM)) was transfered into the 384-well reaction plate, the plate was centrifuged at 1000 rpm and incubated at 25° C. for 30 minutes. The compound final gradient concentrations in the reaction system were 1000, 333.3, 111.1, 37.04, 12.35, 4.12, 1.37, 0.46, 0.15, 0.05, 0 nM. The final concentration of DMSO was 5%; the final concentration of ACC1/ACC2 is 1 nM. • e. 10 μL/well of ADP-Glo solution was transfered into the 384-well reaction plate, the plate was centrifuged at 1000 rpm and incubated at 25° C. for 40 minutes. • f. 20 µL/well of kinase detection reagent was transfered into the 384-well reaction plate, the plate was centrifuged at 1000 rpm and incubated at 25° C. for 40 minutes. • g. Relative Light Units (RLU) was read on an Envision multifunction plate reader. The signal intensity represents the level of ACC1/ACC2 kinase activity.
(§3) The ACC1/ACC2 working solution, substrate mixture, ADP-Glo solution and kinase detection reagent used in the assay are all prepared by using 1× kinase reaction buffer [hydroxyethylpiperazineethanesulfonic acid (HEPES, 50 mM), MgCl2 (2 mM), lauryl polyglycol ether (BRIJ-35, 0.01%), potassium citrate (2 mM), bovine serum albumin (BSA, 50 μg/mL), dithiothreitol (DTT, 2 mM)].
(§4) Data for each concentration, as well as the positive and negative controls were averaged, and the standard deviation was calculated. Percent inhibition was calculated by the formula: 100×(average negative control−compound)/(average negative control−average positive control). The IC50 for each compound was calculated by fitting the data with a nonlinear regression equation: Y=Bottom+(Top−Bottom)/(1+10^((Log IC50−X)×HillSlope)), where X is the log of compound concentration and Y is percent inhibition. 0.1 μM ND-630 was as positive control in the assay.

ACC1 = ACC1 (Homo sapiens (Human), UniProt Q13085); experiment: Acetyl-CoA carboxylase inhibition activity assay in vitro (ADP-Glo kinase assay), ACC1; type: biochemical; conditions: 1 nM ACC1, 5% DMSO, 25° C.
Protocol: as §1, §2, §3, §4

ACC2, sequence (O00763 whole entry, species assumed): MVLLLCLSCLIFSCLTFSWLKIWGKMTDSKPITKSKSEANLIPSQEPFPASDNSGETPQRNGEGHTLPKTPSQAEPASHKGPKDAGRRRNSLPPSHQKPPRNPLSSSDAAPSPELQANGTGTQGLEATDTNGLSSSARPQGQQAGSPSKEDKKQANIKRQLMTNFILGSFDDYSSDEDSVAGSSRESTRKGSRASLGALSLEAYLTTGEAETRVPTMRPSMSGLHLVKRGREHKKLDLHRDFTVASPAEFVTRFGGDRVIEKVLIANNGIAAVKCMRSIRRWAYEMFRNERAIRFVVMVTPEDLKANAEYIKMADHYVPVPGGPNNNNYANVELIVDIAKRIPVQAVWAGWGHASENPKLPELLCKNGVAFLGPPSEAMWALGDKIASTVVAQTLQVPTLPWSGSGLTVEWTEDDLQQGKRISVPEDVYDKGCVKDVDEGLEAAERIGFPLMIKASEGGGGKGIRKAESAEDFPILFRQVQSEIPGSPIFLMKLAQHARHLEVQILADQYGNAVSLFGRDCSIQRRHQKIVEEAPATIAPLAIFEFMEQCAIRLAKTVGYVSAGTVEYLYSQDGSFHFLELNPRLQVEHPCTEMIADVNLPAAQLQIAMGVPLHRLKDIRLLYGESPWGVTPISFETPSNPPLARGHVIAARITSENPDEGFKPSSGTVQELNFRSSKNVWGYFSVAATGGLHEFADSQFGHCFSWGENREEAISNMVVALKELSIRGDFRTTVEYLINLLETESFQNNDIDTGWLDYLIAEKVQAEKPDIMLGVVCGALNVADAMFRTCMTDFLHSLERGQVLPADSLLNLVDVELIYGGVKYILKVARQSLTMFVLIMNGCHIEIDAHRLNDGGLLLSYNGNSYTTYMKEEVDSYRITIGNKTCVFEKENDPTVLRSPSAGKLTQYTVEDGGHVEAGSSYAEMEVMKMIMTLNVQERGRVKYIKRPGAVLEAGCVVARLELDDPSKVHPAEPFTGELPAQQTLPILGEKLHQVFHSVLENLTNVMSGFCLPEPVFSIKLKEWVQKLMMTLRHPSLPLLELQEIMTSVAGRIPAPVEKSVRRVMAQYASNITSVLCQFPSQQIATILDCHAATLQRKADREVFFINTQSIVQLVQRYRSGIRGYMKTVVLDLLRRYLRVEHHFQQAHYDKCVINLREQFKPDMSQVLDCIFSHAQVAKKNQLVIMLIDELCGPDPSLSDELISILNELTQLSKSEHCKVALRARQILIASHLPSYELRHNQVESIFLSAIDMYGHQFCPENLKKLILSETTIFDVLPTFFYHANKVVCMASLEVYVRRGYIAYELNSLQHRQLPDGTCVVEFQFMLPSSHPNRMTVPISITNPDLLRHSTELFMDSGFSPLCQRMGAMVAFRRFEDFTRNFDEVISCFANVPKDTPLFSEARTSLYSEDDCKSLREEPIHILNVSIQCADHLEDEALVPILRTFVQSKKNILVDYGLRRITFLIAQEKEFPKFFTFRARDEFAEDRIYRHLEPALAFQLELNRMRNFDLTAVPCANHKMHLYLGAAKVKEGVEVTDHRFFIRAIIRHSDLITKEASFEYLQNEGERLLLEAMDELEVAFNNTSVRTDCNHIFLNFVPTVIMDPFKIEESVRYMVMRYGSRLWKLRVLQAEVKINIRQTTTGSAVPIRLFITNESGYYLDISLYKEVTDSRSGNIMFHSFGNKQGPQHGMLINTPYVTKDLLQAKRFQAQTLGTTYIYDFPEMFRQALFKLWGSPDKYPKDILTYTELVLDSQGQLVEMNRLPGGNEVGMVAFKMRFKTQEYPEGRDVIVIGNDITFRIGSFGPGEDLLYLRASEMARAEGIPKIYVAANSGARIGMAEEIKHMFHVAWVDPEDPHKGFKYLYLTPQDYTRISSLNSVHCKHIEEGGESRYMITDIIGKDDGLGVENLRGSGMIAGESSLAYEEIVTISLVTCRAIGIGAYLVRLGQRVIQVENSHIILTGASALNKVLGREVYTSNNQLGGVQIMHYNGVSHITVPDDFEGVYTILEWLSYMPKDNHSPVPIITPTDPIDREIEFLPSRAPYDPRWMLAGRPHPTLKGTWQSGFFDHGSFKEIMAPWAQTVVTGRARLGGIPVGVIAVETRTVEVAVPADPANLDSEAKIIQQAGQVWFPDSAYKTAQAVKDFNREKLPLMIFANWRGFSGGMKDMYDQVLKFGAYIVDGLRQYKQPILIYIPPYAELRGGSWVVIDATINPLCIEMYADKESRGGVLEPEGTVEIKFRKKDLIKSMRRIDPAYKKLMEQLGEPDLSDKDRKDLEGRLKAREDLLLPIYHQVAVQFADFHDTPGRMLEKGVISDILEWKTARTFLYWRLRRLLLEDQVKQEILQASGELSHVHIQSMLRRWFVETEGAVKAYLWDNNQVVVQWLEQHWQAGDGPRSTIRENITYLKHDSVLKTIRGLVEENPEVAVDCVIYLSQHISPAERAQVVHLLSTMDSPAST

| Structure (SMILES) | IC50 (ACC2) [nM] | IC50 (ACC1) [nM] |
| --- | --- | --- |
| COc1ccccc1C(Cn1c(=O)n(C(C)(C)C(=O)O)c(=O)c2c(C)c(-c3ncco3)sc21)O[C@H]1C[C@H]2C[C@H](F)C[C@H]2C1 (stereo partly drawn) [Example 17, 2-[1-[2-[[(3aR,6aS)-5-fluoro-1,2,3,3a,4,5,6,6a-octahydropentalen-2-yl]oxy]-2-(2-methoxyphenyl)ethyl)-5-methyl-6-oxazol-2-yl-2,4-dioxo-thieno[2,3-d]pyrimid-3-yl]-2-methyl-propanoic acid] |  | 2.24 |
| COc1ccccc1C(Cn1c(=O)n(C(C)(C)C(=O)O)c(=O)c2c(C)c(-c3ncco3)sc21)OC1CC2CN(S(C)(=O)=O)CC2C1 (centres unmarked) [Example 10, 2-[1-[2-(2-methoxyphenyl)-2-[(2-methylsulfonyl-3,3a,4,5,6,6a-hexahydro-1H-cyclopenteno[c]pyrrole-5-yl)oxy]ethyl]-5-methyl-6-oxazol-2-yl-2,4-dioxo-thieno[2,3-d]pyrimid-3-yl]-2-methyl-propanoic acid] | 1.76 | 0.81 |
| COc1ccccc1C(Cn1c(=O)n(C(C)(C)C(=O)O)c(=O)c2c(C)c(-c3ncco3)sc21)O[C@H]1C[C@H]2C[C@@H](O)C[C@H]2C1 (stereo partly drawn) [Example 1, 2-[1-[2-[[(3aS,6aR)-5-hydroxy-1,2,3,3a,4,5,6,6a-octahydropentalen-2-yl]oxy]-2-(2-methoxyphenyl)ethyl]-5-methyl-6-oxazol-2-yl-2,4-dioxo-thieno[2,3-d]pyrimid-3-yl]-2-methyl-propanoic acid] |  | 0.93 |
| COc1ccccc1C(Cn1c(=O)n(C(C)(C)C(=O)O)c(=O)c2c(C)c(-c3ncco3)sc21)O[C@@H]1C[C@@H]2CC(O)(C(F)(F)F)C[C@@H]2C1 (stereo partly drawn) [Example 18, 2-[1-[2-[[(3aR,6aS)-5-hydroxy-5-(trifluoromethyl)-2,3,3a,4,6,6a-hexahydro-1H-pentalen-2-yl]oxy]-2-(2-methoxyphenyl)ethyl]-5-methyl-6-oxazol-2-yl-2,4-dioxo-thieno[2,3-d]pyrimid-3-yl]-2-methyl-propanoic acid] |  | 0.89 |
| COc1ccccc1C(Cn1c(=O)n(C(C)(C)C(=O)O)c(=O)c2c(C)c(-c3ncco3)sc21)O[C@H]1C[C@H]2CC(C#N)C[C@H]2C1 (some centres unmarked) [Example 15, 2-[1-[2-[(5-cyano-1,2,3,3a,4,5,6,6a-octahydropentalen-2-yl)oxy]-2-(2-methoxyphenyl)ethyl]-5-methyl-6-oxazol-2-yl-2,4-dioxo-thieno[2,3-d]pyrimid-3-yl]-2-methyl-propanoic acid] | 6.53 | 1.64 |
| COc1ccccc1C(Cn1c(=O)n(C(C)(C)C(=O)O)c(=O)c2c(C)c(-c3ncco3)sc21)OC1CC2COCC2C1 (centres unmarked) [Example 13, 2-[1-[2-(3,3a,4,5,6,6a-hexahydro-1H-cyclopenteno[c]furan5-oxy)-2-(2-methoxyphenyl)ethyl)-5-methyl-6-oxazol-2-yl-2,4-dioxo-thieno[2,3-d]pyrimid-3-yl]-2-methyl-propanoic acid] | 4.24 | 1.76 |
| COc1ccccc1C(Cn1c(=O)n(C(C)(C)C(=O)O)c(=O)c2c(C)c(-c3ncco3)sc21)O[C@@H]1C[C@@H]2CC(C)(O)C[C@@H]2C1 (stereo partly drawn) [Example 14, 2-[1-[2-[[(3aR,6aS)-5-hydroxy-5-methyl-2,3,3a,4,6,6a-hexahydro-1H-pentalen-2-yl]oxy]-2-(2-methoxyphenyl)ethyl]-5-methyl-6-oxazol-2-yl-2,4-dioxo-thieno[2,3-d]pyrimid-3-yl]-2-methyl-propanoic acid] |  | 1.43 |

Now from value to molecule:

| IC50 (ACC2) [nM] | IC50 (ACC1) [nM] | Structure (SMILES) |
| --- | --- | --- |
| 2.74 | 1.21 | COc1ccccc1C(Cn1c(=O)n(C(C)(C)C(=O)O)c(=O)c2c(C)c(-c3ncco3)sc21)O[C@H]1C[C@H]2CO[C@@H](C1)O2 (some centres unmarked) [Example 32] |
| 5.45 | 0.88 | CCC1(O)C[C@H]2C[C@@H](OC(Cn3c(=O)n(C(C)(C)C(=O)O)c(=O)c4c(C)c(-c5ncco5)sc43)c3ccccc3OC)C[C@H]2C1 (stereo partly drawn) [Example 19, 2-[1-[2-[[(3aR,6aS)-5-ethyl-5-hydroxy-2,3,3a,4,6,6a-hexahydro-1H-pentalen-2-yl]oxy]-2-(2-methoxyphenyl)ethyl)-5-methyl-6-oxazol-2-yl-2,4-dioxo-thieno[2,3-d]pyrimid-3-yl]-2-methyl-propanoic acid] |
| 5.4 | 1.43 | COc1ccccc1C(Cn1c(=O)n(C(C)(C)C(=O)O)c(=O)c2c(C)c(-c3ncco3)sc21)O[C@@H]1C[C@@H]2CC(O)(C#N)C[C@@H]2C1 (stereo partly drawn) [Example 26, 2-[1-[2-[[(3aR,6aS)-5-cyano-5-hydroxy-2,3,3a,4,6,6a-hexahydro-1H-pentalen-2-yl]oxy]-2-(2-methoxyphenyl)ethyl]-5-methyl-6-oxazol-2-yl-2,4-dioxo-thieno[2,3-d]pyrimid-3-yl]-2-methyl-propanoic acid] |
| 4.07 | 1.43 | COc1ccccc1C(Cn1c(=O)n(C(C)(C)C(=O)O)c(=O)c2c(C)c(-c3ncco3)sc21)O[C@@H]1C[C@@H]2CC(F)(F)C[C@@H]2C1 (stereo partly drawn) [Example 21, 2-[1-[2-[[(3aR,6aS)-5,5-difluoro-2,3,3a,4,6,6a-hexahydro-1H-pentalen-2-yl]oxy]-2-(2-methoxyphenyl)ethyl)-5-methyl-6-oxazol-2-yl-2,4-dioxo-thieno[2,3-d]pyrimid-3-yl]-2-methyl-propanoic acid] |
| 2.19 | 0.47 | COc1ccccc1C(Cn1c(=O)n(C(C)(C)C(=O)O)c(=O)c2c(C)c(-c3ncco3)sc21)O[C@@H]1C[C@@H]2C[C@@H](S(C)(=O)=O)C[C@@H]2C1 (stereo partly drawn) [Example 29, 2-[1-[2-[[(3aR,6aS)-5-methylsulfonyl-1,2,3,3a,4,5,6,6a-octahydropentalen-2-yl]oxy]-2-(2-methoxyphenyl)ethyl]-5-methyl-6-oxazol-2-yl-2,4-dioxo-thieno[2,3-d]pyrimid-3-yl]-2-methyl-propanoic acid] |
| 1.13 | 0.67 | COc1ccccc1C(Cn1c(=O)n(C(C)(C)C(=O)O)c(=O)c2c(C)c(-c3ncco3)sc21)O[C@@H]1C[C@@H]2CC(O)(C3CC3)C[C@@H]2C1 (stereo partly drawn) [Example 23, 2-[1-[2-[[(3aR,6aS)-5-cyclopropyl-5-hydroxy-2,3,3a,4,6,6a-hexahydro-1H-pentalen-2-yl]oxy]-2-(2-methoxyphenyl)ethyl]-5-methyl-6-oxazol-2-yl-2,4-dioxo-thieno[2,3-d]pyrimid-3-yl]-2-methyl-propanoic acid] |
| 4.8 | 1.56 | COc1ccccc1C(Cn1c(=O)n(C(C)(C)C(=O)O)c(=O)c2c(C)c(-c3ncco3)sc21)O[C@@H]1C[C@@H]2CC(O)(CC#N)C[C@@H]2C1 (stereo partly drawn) [Example 27, 2-[1-[2-[[(3aS,6aR)-5-(cyanomethyl)-5-hydroxy-2,3,3a,4,6,6a-hexahydro-1H-pentalen-2-yl]oxy]-2-(2-methoxyphenyl)ethyl]-5-methyl-6-oxazol-2-yl-2,4-dioxo-thieno[2,3-d]pyrimid-3-yl]-2-methyl-propanoic acid] |
| 8.44 | 1.55 | COc1ccccc1C(Cn1c(=O)n(C(C)(C)C(=O)O)c(=O)c2c(C)c(-c3ncco3)sc21)O[C@H]1C[C@H]2CC(O)C(O)[C@H]2C1 (stereo partly drawn) [Example 22, 2-[1-[2-[[(2S,3aS,6aR)-4,5-dihydroxy-1,2,3,3a,4,5,6,6a-octahydropentalen-2-yl]oxy]-2-(2-methoxyphenyl)ethyl]-5-methyl-6-oxazol-2-yl-2,4-dioxo-thieno[2,3-d]pyrimid-3-yl]-2-methyl-propanoic acid] |

Source: patent US10759812B2, “Thienopyrimidine derivative and use thereof in medicine” (SUNSHINE LAKE PHARMA CO., LTD., priority 2017, dated 2020)
